One experiment concerns OVCAR-3 tumor cells. Briefly: Tumor cell proliferation in vitro, CTG method, OVCAR-3. It counts as cell-based. Particulars: OVCAR-3, 96 hours; for pIC50: Homo sapiens. How it is done:
(§1) The 50% inhibitory concentrations (IC50) for the cell proliferation of the compound Sp-1, the compound Rp-1 and NUC-1031 in BxPC-3, MIA PaCa-2 and OVCAR-3 tumor cell lines were measured using the CTG method.
(§2) Cells in an exponential growth phase were collected and the viable cells were counted using a Vi-Cell XR cell counter. The cell suspension was adjusted to 3.33×10^4/ml or 5.56×10^4/ml with culture media corresponding to the respective cells. 90 μl of cell suspension was added to each well of a 96-well cell culture plate, and the final cell concentrations of BxPC-3 and MIA PaCa-2 were 3000 cells/well and the final cell concentration of OVCAR-3 was 5000 cells/well. Each test compound was dissolved in DMSO to become 10 mM stock solutions. 3.16× serial dilutions were prepared by the stock solutions and DMSO. Then the dilutions were respectively diluted 100 times with the culture media. Finally, to each well of the respective cell lines was added 10 μl of the corresponding 10-fold solution, triplicate wells were set up for each drug concentration (see the methods for formulating the compounds and the design of sample adding: the plate map for IC50 determination); for the concentration ranges of the test compounds and the reference compounds used for the final tests, please see the methods for formulating the compounds and the design of sample adding on the following pages: the test compounds and the reference compounds were diluted, and the final concentration of DMSO in each well was 0.1%. The cells were placed in an incubator at 37° C. with 5% CO2 to be cultured for 72 hours (BxPC-3, MIA PaCa-2) or 96 hours (OVCAR-3). After 72 or 96 hours of drug treatment, 50 μl (½ culture volume) of CTG solution, which had been melted and equilibrated to room temperature in advance was added to each well according to the operating instruction of CTG; the mixtures were mixed evenly for 2 minutes with a microwell plate shaker, placed at room temperature for 10 minutes, and then an Envision 2104 plate reader was used to measure the values of the […] signals.
(§3) Cell viability was calculated with the formula: Vsample/Vvehicle control×100%, wherein Vsample is the reading of the treatment group and Vvehicle control is the average value of the vehicle control group. Non-linear regression model was used to plot the S-shape dose-survival rate curves and calculate the IC50 values using GraphPad Prism 5.0 software.

For experiment [1], the system named is BxPC-3, MIA PaCa-2 and OVCAR-3 tumor cells. Briefly: Tumor cell proliferation in vitro, summary over the three cell lines. It is filed as cell-based. Particulars: for pIC50: span over BxPC-3, MIA PaCa-2 and OVCAR-3, read-out: IC50 values (cytotoxic effect). How it is done:
as §1, §2, §3

The next experiment concerns MIA PaCa-2 tumor cells. Briefly: Tumor cell proliferation in vitro, CTG method, MIA PaCa-2. It counts as cell-based, human. Conditions: MIA PaCa-2, 72 hours; for pIC50: Homo sapiens. How it is done:
as §1, §2, §3

A further experiment concerns BxPC-3 tumor cells. Put plainly: Tumor cell proliferation in vitro, CTG method, BxPC-3. Particulars: BxPC-3, 72 hours; for pIC50: Homo sapiens. It counts as cell-based. How it is done: as §1, §2, §3
For experiment [2], the system named is MIA PaCa-2 human pancreatic cancer subcutaneous xenograft. Briefly: Pharmacodynamic evaluation in human pancreatic cancer subcutaneous xenograft mouse model. It is filed as in vivo, BALB/c nude mice. Particulars: for Relative tumor inhibition rate TGI: 0.19 mmoL/kg i.p. twice a week for 4 consecutive weeks (gemcitabine 50 mg/kg, others 110 mg/kg). How it is done: Cell Culture: MIA PaCa-2 cells were cultured in a DMEM culture medium containing 10% fetal bovine serum and 2.5% HS. MIA PaCa-2 cells in an exponential growth phase were collected and resuspended in PBS to a suitable concentration for the subcutaneous tumor inoculation in nude mice.
Animal modeling and Grouping: BALB/c nude mice, female, 6 to 8 weeks old (the predicted weeks of age of the mice when being inoculated with tumor cells), 18 to 22 g, purchased from Shanghai Lingchang Biological Technology Co., LTD. A total of 52 mice (40 plus 30% surplus) were required. After grouping, there were 5 groups in total, each group having 8 mice. All experimental mice were raised in a barrier system and adapted to the environment for at least 7 days in advance. Each mice was subcutaneously inoculated with 3×10^6 MIA PaCa-2 cells on the right back and the cells were resuspended in PBS and matrigel (1:1) (0.1 ml/mice); the tumor growth was observed regularly, and when the tumor volumes reached an average size of 150 to 200 mm^3, the mice were randomly divided into groups according to the size of tumor and body weight of the mice, and the drugs were administered.
Relative tumor inhibition rate TGI(%): TGI %=(1−T/C)×100%. T/C % is the relative tumor growth rate, which is the percentage of the relative tumor volume or tumor weight of the treatment groups with respect to the control group at a certain timepoint. T and C are the relative tumor volume (RTV) or tumor weight (TW), respectively, of the treatment groups and the control group at a particular timepoint.
The calculation formula is as follows: T/C %=TRTV/CRTV×100% (TRTV: the average RTV of a treatment group; CRTV: the average RTV of the vehicle control group; RTV=Vt/V0, V0 is the tumor volume of an animal at the time of grouping, Vt is the tumor volume of an animal after treatment). Or T/C %=TTW/CTW×100% (TTW: the average tumor weight of a treatment group at the end of the experiment; CTW: the average tumor weight of the vehicle control group at the end of the experiment).
(A xenograft is tissue or cells of one species grown in another, often human tumour cells in immunodeficient mice.)

pIC50: −log10 of the molar value. Entries after “also recorded” stand apart in the source; their conditions may differ.

Consider `C[C@H](N[P@@](=O)(OC[C@H]1O[C@@H](n2ccc(N)nc2=O)C(F)(F)[C@@H]1O)Oc1ccccc1)C(=O)OCc1ccccc1` [Compound Rp-1], for which the pIC50 (usually −log10 of the IC50, conventionally taken in molar units) in the experiment with OVCAR-3 tumor cells was 9.78; in experiment [1], 9.00 to 11.00; in the experiment with MIA PaCa-2 tumor cells it was 9.90; in the experiment on BxPC-3 tumor cells, 9.26. In addition, the Max inh. in the experiment on OVCAR-3 tumor cells came out at 54.19%; in the experiment on MIA PaCa-2 tumor cells it was 69.2%; in the experiment on BxPC-3 tumor cells, 61.54%. Further, the “Relative tumor inhibition rate TGI” value in experiment [2] was 22%.

`C[C@H](N[P@](=O)(OC[C@H]1O[C@@H](n2ccc(N)nc2=O)C(F)(F)[C@@H]1O)Oc1ccccc1)C(=O)OCc1ccccc1` [Compound Sp-1]: the pIC50 was 10.89 in the experiment with OVCAR-3 tumor cells, 9.00 to 11.00 in experiment [1], 10.92 in the experiment with MIA PaCa-2 tumor cells and 10.35 in the experiment on BxPC-3 tumor cells. Besides, the Max inh. in the experiment on OVCAR-3 tumor cells came to 58.22%; in the experiment with MIA PaCa-2 tumor cells it was 71%; in the experiment with BxPC-3 tumor cells it was 66.48%. The “inhibitory effect on the proliferation activity of tumor cells in vitro relative to compound Rp-1” value in experiment [1] (versus compound Rp-1) is recorded as “about 10 times”. The “Relative tumor inhibition rate TGI” value in experiment [2] stood at 79%. Moreover, the “in vivo antitumor activity, comparison in words” value in experiment [2] (equimolar dose, i.p., BIW x 4) was “better in vivo anti-tumor activity than the compound Rp-1; also recorded: better in vivo antitumor activity as compared with gemcitabine and the compound Rp-1”.

For the compound `Nc1ccn([C@@H]2O[C@H](CO)[C@@H](O)C2(F)F)c(=O)n1` [Gemcitabine, reference compound], in experiment [2], the “Relative tumor inhibition rate TGI” value was found to be 55%.

As for `C[C@H](NP(=O)(OC[C@H]1O[C@@H](n2ccc(N)nc2=O)C(F)(F)[C@@H]1O)Oc1ccccc1)C(=O)OCc1ccccc1` (stereo partly drawn) [NUC-1031], the negative logarithm of the IC50 (pIC50) was 10.02 in the experiment with OVCAR-3 tumor cells, 9.00 to 11.00 in experiment [1], 10.20 in the experiment on MIA PaCa-2 tumor cells and 9.58 in the experiment with BxPC-3 tumor cells. Also, the Max inh. turned out to be 56.3% in the experiment with OVCAR-3 tumor cells, 65.03% with MIA PaCa-2 tumor cells and 65.82% with BxPC-3 tumor cells. In addition, the “Relative tumor inhibition rate TGI” value in experiment [2] turned out to be 54%.

The record behind these values is patent publication US10689413B2, “Composition enriched in single isomer of NUC-1031 and preparation method and use thereof” (BrightGene Bio-Medical Technology Co., Ltd., priority 2015, dated 2020).
